Source: US11207315B2, “Emetine compounds for treatment and prevention of flavivirus infection” (FLORIDA STATE UNIVERSITY RESEARCH FOUNDATION, INC., priority 2017, dated 2021)
Counter-ions that a name gives are not always drawn.

Columns and labels:
PRVABC59-ZIKV = test: time of addition: drug added 1 hour prior to or 4 hours post infection, NS1 Western blot and ZIKV-ENV IF staining; format: cell-based, Zika virus; details: added before or after infection; 1 μM
Method: (§1) IC50 for each strain is ≤˜10 nM.
Drug (emetine) was added at 1 μM either 1-hour prior to infection with PRVABC59-ZIKV, or 4-hours post infection with PRVABC59-ZIKV.
FIGS. 6A-B show IF staining of ZIKV-ENV Vero cells after a 24-hour infection. Drug was added at 1 μM either 1-hour prior to infection with PRVABC59-ZIKV, or 4-hours post infection with PRVABC59-ZIKV.
Immunocytochemistry. Cells were fixed with 4% paraformaldehyde (Sigma) for 15 min at room temperature. Samples were permeabilized and blocked with 0.25% Triton X-100 (Sigma) and 10% donkey or goat serum in PBS for 20 min as previously described (Chiang et al., 2011; [41]; Yoon et al., 2014). Samples were then incubated with primary antibodies at 4° C. overnight, followed by multiple PBST washes and incubation with secondary antibodies for 1 h at room temperature. Slides were mounted using VECTASHIELD with DAPI (Vectorlabs, Burlingame, Calif.). The following primary antibodies were used: anti-flavivirus group antigen (clone D1-4G2-4-15; mouse; 1:500; Millipore), and anti-cleaved caspase-3 ([…]; Rabbit; 1:500; Cell Signaling Technology). Antibodies were prepared in PBS containing 0.25% Triton X-100 and 10% donkey serum. Images were taken by Zeiss LSM 700 and 880 confocal microscopes, Olympus BX61, or Zeiss Axiovert 200M microscope.
Western blot. […]

ZIKV [1] = test: serum viral load (ZIKV NS1 ELISA) in ZIKV-challenged mice; format: in vivo, Ifnar1−/− mice; details: for decrease in serum viral load: serum at day 3; for reduction in serum viral load: until day 3
Method: (§2) FIG. 8. Zika virus load estimation in mouse serum following emetine treatment. Serum was separated. NS1 protein was estimated using ZIKV-NS1 ELISA kit (Biofront, Tallahassee, Fla.) as per the manufacturer's protocol. Briefly, 5 μl of the serum was lysed with equal volume of lysis buffer for 30 min at 37° C. A 1:900 dilution of the serum was done using sample dilution buffer and added to ELISA plates. Reactions were quantified using HRP conjugated antibody and TMB. Absorbance was taken at 450 nm after adding the stop solution. Statistical analysis was done using the Mann-Whitney ANOVA. *p<0.05, **p<0.01, ***p<0.001.
as §2, with “9.” for “8.”, “treatment before and after Zika virus challenge.” for “treatment.”, “1:300” for “1:900”
NS1 ELISA. The anti-ZIKV NS1 ELISA (ZKV-NS1-EK) was obtained from BioFront Technologies (Tallahassee, Fla.) and used according to the manufacturer's protocol.
Ifnar1−/− mice (7-8 wk old, male and female, Jackson Lab) were dosed (i.p) with Emetine 1 mg/kg/day (n=6), 2 mg/kg/day (n=8) or saline (Vehicle control, n=8) starting at 24 hours prior to challenging with ZIKV (10^3, Focal forming unit (FFU)) on day 0. Drug was continued until day 6. At peak viremia (day 3), a blood sample was taken from the tail vein and serum was separated and stored at −70° C. till further analysis. The body weight were monitored twice daily until day 10. Mice reaching humane end points were euthanized. With emetine treatment, there was a 30% and 37% decrease in serum viral load with 1 mg/kg and 2 mg/kg treatment, respectively.
(§3) Ifnar1−/− mice (8 wk old, male and female) were dosed with Emetine 2 mg/kg/day i.p. starting at 24 hours prior (n=8) or 24 after (n=7) the challenging with ZIKV on day 0. Drug was continued till day 3. Mice were euthanized, and blood and liver tissue were collected.

HEK293 cells = test: Toxicity IC50 (cell-killing activity) in the compound screen; format: cell-based, Human
ZIKV (three strains) [2] = test: immunofluorescence staining and quantification of ZIKV positive SNB-19 cells; format: cell-based, Zika virus; details: one of three ZIKV strains; emetine at 0.01, 0.1, or 1 μM
Method: Immunofluorescence (IF) staining (FIG. 2A) and quantification (FIG. 2B) of ZIKV positive SNB-19 cells following infection with one of three ZIKV strains and treatment with emetine at 0.01, 0.1, or 1 μM. Emetine is effective against all three ZIKV strains tested.
Preparation of ZIKV and cell infection. The MR766-ZIKV stock with the titer of 1×10^5 Tissue Culture Infective Dose (TCID)/ml in the form of culture fluid from an infected rhesus Macaca cell line LLC-MK2, was originally obtained from ZeptoMetrix (Buffalo, N.Y.). The FSS13025-ZIKV strain was obtained from Drs. Robert Tesh and Pei-Yong Shi (University of Texas Medical Branch, Galveston, Tex.). The PRVABC59 strain was obtained from ATCC (Manassas, Va.). Original viral stocks were then amplified in Aedes albopictus clone C6/36 cells. Briefly, C6/36 cells were inoculated with viral inoculum for one hour at 28° C. in low volume of media (3 ml per T-75 flask), with rocking every 15 minutes, before addition of 17 ml media. Viral inoculated cells were incubated at 28° C. for 6-7 days before harvesting of supernatant. C6/36-amplified ZIKV titer was determined by infecting Vero cells for 48 hours with a methyl-cellulose overlay and analyzed for focus-forming units per mL (FFU/ml). In mock infections, an equal volume of spent uninfected C6/36 culture medium was used. […]

ZIKV (three strains) [3] = test: infectious ZIKV production from SNB-19 cells, focus-forming unit assay on Vero cells; format: cell-based; details: Zika virus, for each of three ZIKV strains
Method: FIGS. 1A-B. Antiviral activity of emetine against ZIKV infection. ZIKV production from human glioblastoma SNB-19 cells treated with increasing concentrations of emetine. 24 hours post-infection, supernatants from SNB-19 cells were titrated onto naïve Vero cells plated in a monolayer in 96-well plates for infectious focus-forming unit assay as previously described and focus forming units quantified.
as §1
Cell line cultures. The glioblastoma SNB-19 cell line (part of the National Cancer Institute 60 human tumor cell line) was a gift from Dr. David Meckes (Florida State University, Tallahassee, Fla.). SNB-19 cells were maintained at 37° C. in 5% CO2 in […], 1× penicillin/streptomycin, and 10% fetal bovine serum (Invitrogen). The Aedes albopictus C6/36 cell line (ATCC) was maintained at 28° C. in 5% CO2.
Preparation of ZIKV and cell infection. The MR766-ZIKV stock with the titer of 1×10^5 Tissue Culture Infective Dose (TCID)/ml in the form of culture fluid from an infected rhesus Macaca cell line LLC-MK2, was originally obtained from ZeptoMetrix (Buffalo, N.Y.). The FSS13025-ZIKV strain was obtained from Drs. Robert Tesh and Pei-Yong Shi (University of Texas Medical Branch, Galveston, Tex.). […] C6/36-amplified ZIKV titer was determined by infecting Vero cells for 48 hours with a methyl-cellulose overlay and analyzed for focus-forming units per mL (FFU/ml). […]

ZIKV [4] = test: liver viral load (NS1 gene expression by real time PCR) in ZIKV-challenged mice; format: in vivo, Ifnar1−/− mice; details: until day 3
Method: FIG. 10. Zika virus load estimation in mouse liver following emetine treatment before and after Zika virus challenge. From 30 mg of liver tissue stored in RNAlater (Qiagen), total RNA was isolated using RNeasy mini kit (Qiagen) and converted to cDNA. Viral NS1 gene expression was estimated by real time PC Relative expression of the NS1 gene was calculated using ZIKV-NS1 specific primers and GAPDH primers. Statistical analysis was done using the Mann-Whitney ANOVA. *p<0.05, **p<0.01, ***p<0.001.
as §3

[5] = 2 mg/kg i.p. starting 24 hours after ZIKV challenge
[6] = 2 mg/kg i.p. starting 24 hours prior to ZIKV challenge

SMILES | effect on ZIKV infection by time of addition (PRVABC59-ZIKV) | decrease in serum viral load (ZIKV [1]; 1 mg/kg/day i.p. from 24 hours prior to challenge) | decrease in serum viral load (ZIKV [1]; 2 mg/kg/day i.p. from 24 hours prior to challenge) | Tox IC50 (HEK293 cells) | ZIKV positive SNB-19 cells (IF) (ZIKV (three strains) [2]) | IC50 (ZIKV (three strains) [3]) | reduction in serum viral load (ZIKV [1]; [5]) | reduction in serum viral load (ZIKV [1]; [6]) | reduction in liver viral load (ZIKV [4]; [5]) | reduction in liver viral load (ZIKV [4]; [6])
CC[C@H]1CN2CCc3cc(OC)c(OC)cc3[C@@H]2C[C@@H]1C[C@H]1NCCc2cc(OC)c(OC)cc21 [Emetine, emetine] | effective against ZIKV infection when added before or after infection | 30% | 37% | No | reduces ZIKV infection in a dosage dependent manner | ≤ 10 nM |  |  |  | 
CC[C@H]1CN2CCc3cc(OC)c(OC)cc3[C@@H]2C[C@@H]1C[C@H]1NCCc2cc(OC)c(OC)cc21 [emetine dihydrochloride] |  |  |  |  |  |  | 32% | 55% | 35% | 42%
